Source: the NIST ThermoML archive (doi:10.1021/je800751m)

Test: excess molar enthalpy (molar enthalpy of mixing); xn = mol fraction of the nth substance listed
Conditions: 298.15 K, 101 kPa, Liquid, Flow calorimetry

C1CCCCC1 [cyclohexane] + CCCCO
Conditions	excess molar enthalpy [kcal/mol]
x1 = 0.0503	0.0163
x1 = 0.0998	0.0346
x1 = 0.1502	0.052
x1 = 0.1998	0.0685
x1 = 0.2502	0.0836
x1 = 0.2997	0.0974
x1 = 0.35	0.1103
x1 = 0.4002	0.122
x1 = 0.4503	0.1321
x1 = 0.5003	0.1404
x1 = 0.5501	0.1466
x1 = 0.5997	0.1505
x1 = 0.6501	0.1517
x1 = 0.7002	0.1498
x1 = 0.7501	0.1445
x1 = 0.7996	0.1355
x1 = 0.85	0.123
x1 = 0.9	0.105
x1 = 0.9496	0.0799
